# Key:
# [1] = Biological effects of 3,4-dideoxy-glucosone-3-ene (test not specified)
# [2] = tested on: mouse fibroblasts cells L-929; assay: In vitro assay for cytotoxicity: inhibition of cell growth (ICG); assay type: cell-based
# Procedure: Carbohydrate containing medical solutions used for peritoneal dialysis were mixed with 1 part of a cell growth medium and 10% (volume/volume) fetal calf serum was added (Wieslander et al., 1991, Kidney Int. 40:77-79). The basal cytotoxicity of the medical solution used for peritoneal dialysis was determined on mouse fibroblasts cells L-929 (CCL-1; ATTC, Rockville, Md., USA) as described earlier (Wieslander et al. 1993, Advances in Peritoneal Dialys, 9:31-35) and expressed as inhibition of cell growth (ICG).
# Mouse fibroblast cells (L-929) were grown and incubated according to Järkelid et al., 2000, ATLA 28, 415-425. Inhibition of cell growth was determined for a 4% PD fluid with the following composition
# Additionally dose response curves were made in MEM (Minimal Essential Medium).
# The results from incubation of L-929 cells with synthetic 3,4-dideoxy-glucosone-3-ene added in MEM are presented in table 1 below showing the values plotted in FIG. 5. The 4% PD solution was autoclaved while the PD fluid was sterile filtered. The PD solutions were tested twice (% ICG1 and % ICG2) and the mean ICG was calculated.
# [3] = tested on: mouse fibroblasts cells L-929; conditions: alone or in mixtures at the concentrations found in PD fluids; cited from earlier work
molecule,measurement,setting,value
"3,4-dideoxy-glucosone-3-ene [3,4-DGE]",concentration below which no biological effects seem to be present,[1],< 2 μM
same,% ICG1,"[2]; 5 μM 3,4-DGE in MEM",24%
same,% ICG2,"[2]; 5 μM 3,4-DGE in MEM",12%
same,% ICG3,"[2]; 5 μM 3,4-DGE in MEM",31%
same,mean % ICG,"[2]; 5 μM 3,4-DGE in MEM","21,5%"
same,% ICG1,"[2]; 15 μM 3,4-DGE in MEM",47%
same,% ICG2,"[2]; 15 μM 3,4-DGE in MEM",49%
same,% ICG3,"[2]; 15 μM 3,4-DGE in MEM",44%
same,mean % ICG,"[2]; 15 μM 3,4-DGE in MEM","46,5%"
same,% ICG1,"[2]; 52 μM 3,4-DGE in MEM",92%
same,% ICG2,"[2]; 52 μM 3,4-DGE in MEM",80%
same,% ICG3,"[2]; 52 μM 3,4-DGE in MEM",88%
same,mean % ICG,"[2]; 52 μM 3,4-DGE in MEM",84%
same,% ICG2,"[2]; 2,5 μM 3,4-DGE in MEM",5%
same,% ICG3,"[2]; 2,5 μM 3,4-DGE in MEM",20%
same,mean % ICG,"[2]; 2,5 μM 3,4-DGE in MEM","12,5%"
same,% ICG1,"[2]; 10,4 μM 3,4-DGE in MEM",36%
same,% ICG2,"[2]; 10,4 μM 3,4-DGE in MEM",51%
same,% ICG3,"[2]; 10,4 μM 3,4-DGE in MEM",42%
same,mean % ICG,"[2]; 10,4 μM 3,4-DGE in MEM","46,5%"
same,% ICG1,"[2]; 24,3 μM 3,4-DGE in MEM",63%
same,% ICG2,"[2]; 24,3 μM 3,4-DGE in MEM",65%
same,% ICG3,"[2]; 24,3 μM 3,4-DGE in MEM",58%
same,mean % ICG,"[2]; 24,3 μM 3,4-DGE in MEM","61,5%"
same,EC50,"[2]; dose response curves in MEM, L-929 cells",16 µM
same,toxicity in cytotoxicity test,[2]; fibroblast cells,toxic to fibroblast cells
O=CC(=O)C[C@H](O)[C@H](O)CO [3-deoxyglucosone],toxicity in the L-929 system,[3],None of these five listed compounds show toxicity
C=O [formaldehyde],toxicity in the L-929 system,[3],None of these five listed compounds show toxicity
O=CC=O [glyoxal],toxicity in the L-929 system,[3],None of these five listed compounds show toxicity
CC=O [acetaldehyde],toxicity in the L-929 system,[3],None of these five listed compounds show toxicity

# From patent publication US20040101544A1, “Method for detoxifying a carbohydrate containing solution” (priority 2000, published 2004)
